Experimental data taken from PubChem BioAssay (NCI).
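These data come from cells grown in 96-well plates and exposed to compound for 48 hours at five concentrations. Abbreviation: GI50, concentration required for 50% inhibition of growth. TGI: total growth inhibition.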

What was measured:
Test in all cases: growth of human tumour cells (NCI), 48 h; in the data active = GI50 below about 0.43 µM; inactive = the rest
KM12 colon = tested on: KM12 colon
SR leukemia = tested on: SR leukemia
SW-620 colon = tested on: SW-620 colon
HT29 colon = tested on: HT29 colon
MDA-MB-231 breast = tested on: MDA-MB-231 breast
M14 melanoma = tested on: M14 melanoma
OVCAR-8 ovarian = tested on: OVCAR-8 ovarian
OVCAR-4 ovarian = tested on: OVCAR-4 ovarian
NCI-H226 lung = tested on: NCI-H226 lung
HCC-2998 colon = tested on: HCC-2998 colon

COCCOC(=O)CCn1cc(F)c(=O)[nH]c1=O
inactive: GI50 (KM12 colon) 5.93 µg/mL | GI50 (SR leukemia) 2.97 µg/mL | GI50 (SW-620 colon) 26.9 µg/mL | GI50 (HT29 colon) 4.55 µg/mL | GI50 (MDA-MB-231 breast) > 150 µg/mL | GI50 (M14 melanoma) 8.38 µg/mL | GI50 (OVCAR-8 ovarian) 32 µg/mL | GI50 (OVCAR-4 ovarian) 20.4 µg/mL | GI50 (NCI-H226 lung) 119 µg/mL
> 150 µg/mL: TGI (KM12 colon) | TGI (SR leukemia) | TGI (SW-620 colon) | TGI (HT29 colon) | TGI (MDA-MB-231 breast) | TGI (M14 melanoma) | TGI (OVCAR-8 ovarian) | TGI (OVCAR-4 ovarian) | TGI (NCI-H226 lung)

CN(C)c1ccc(/C=N/Nc2ccc(-c3nc4ccccc4[nH]3)cc2)cc1
46.8 µM: TGI (M14 melanoma)
inactive: GI50 (KM12 colon) 9.81 µM | GI50 (SW-620 colon) 18.9 µM | GI50 (MDA-MB-231 breast) 13.4 µM | GI50 (M14 melanoma) 13.2 µM | GI50 (OVCAR-8 ovarian) 9.79 µM
32.4 µM: TGI (OVCAR-8 ovarian)
42.1 µM: TGI (MDA-MB-231 breast)
> 50 µM: TGI (KM12 colon) | TGI (SW-620 colon)

C(=C1/CCCCC([n+]2ccccc2)=N1)/c1ccccc1
> 100 µM: TGI (SR leukemia) | TGI (SW-620 colon) | TGI (HT29 colon) | TGI (M14 melanoma) | TGI (OVCAR-8 ovarian) | TGI (OVCAR-4 ovarian) | TGI (NCI-H226 lung) | TGI (HCC-2998 colon)

COc1ccc(-c2nc(N)nc(-c3cc(C)ccc3O)c2Cl)cc1
> 100 µM: TGI (KM12 colon) | TGI (SR leukemia) | TGI (SW-620 colon) | TGI (HT29 colon) | TGI (M14 melanoma) | TGI (OVCAR-8 ovarian) | TGI (NCI-H226 lung) | TGI (HCC-2998 colon)
53.3 µM: TGI (OVCAR-4 ovarian)

O=C1CCCC2COc3ccc(O)c1c32 (configuration not stated)
> 100 µM: TGI (KM12 colon) | TGI (SR leukemia) | TGI (HT29 colon) | TGI (M14 melanoma) | TGI (OVCAR-8 ovarian) | TGI (OVCAR-4 ovarian) | TGI (NCI-H226 lung) | TGI (HCC-2998 colon)

Nc1ccccc1C#Cc1ccccc1C#CCCCCO
77.3 µM: TGI (SW-620 colon)
49.4 µM: TGI (OVCAR-8 ovarian)
48.4 µM: TGI (KM12 colon)
36.2 µM: TGI (M14 melanoma)
31.1 µM: TGI (HT29 colon)
61.3 µM: TGI (NCI-H226 lung)
inactive: GI50 (KM12 colon) 16.9 µM | GI50 (SW-620 colon) 25.1 µM | GI50 (HT29 colon) 15.9 µM | GI50 (MDA-MB-231 breast) 16.2 µM | GI50 (M14 melanoma) 17.1 µM | GI50 (OVCAR-8 ovarian) 20.3 µM | GI50 (OVCAR-4 ovarian) 34.1 µM | GI50 (NCI-H226 lung) 27.4 µM | GI50 (HCC-2998 colon) 14.6 µM
37 µM: TGI (MDA-MB-231 breast)
30.1 µM: TGI (HCC-2998 colon)
70.6 µM: TGI (OVCAR-4 ovarian)

C/C(=N\N=C(N)N)c1sc(-c2nc(C)c(/C(C)=N/N=C(N)N)s2)nc1C
> 66.4 µM: TGI (SR leukemia)
> 100 µM: TGI (KM12 colon) | TGI (SW-620 colon) | TGI (HT29 colon) | TGI (M14 melanoma) | TGI (OVCAR-8 ovarian) | TGI (OVCAR-4 ovarian) | TGI (NCI-H226 lung) | TGI (HCC-2998 colon)

S=C1OC2C3C4CC5C3C(O1)C1C5C4C21 (configuration not stated)
> 100 µM: TGI (KM12 colon) | TGI (SR leukemia) | TGI (SW-620 colon) | TGI (HT29 colon) | TGI (M14 melanoma) | TGI (OVCAR-8 ovarian) | TGI (OVCAR-4 ovarian) | TGI (NCI-H226 lung) | TGI (HCC-2998 colon)

NC(=O)c1ccc(-c2c3ccccc3cc3c2ccc2ccccc23)cc1
82.4 µM: TGI (HCC-2998 colon)
23.8 µM: TGI (MDA-MB-231 breast)
19.7 µM: TGI (SW-620 colon)
inactive: GI50 (KM12 colon) 1.32 µM | GI50 (SR leukemia) 1.3 µM | GI50 (SW-620 colon) 2.56 µM | GI50 (MDA-MB-231 breast) 3.91 µM | GI50 (M14 melanoma) 2.04 µM | GI50 (OVCAR-8 ovarian) 6.51 µM | GI50 (OVCAR-4 ovarian) 5.79 µM | GI50 (NCI-H226 lung) 6.97 µM | GI50 (HCC-2998 colon) 5.22 µM
52.3 µM: TGI (NCI-H226 lung)
29.7 µM: TGI (OVCAR-4 ovarian)
15.2 µM: TGI (KM12 colon)
> 100 µM: TGI (SR leukemia)
36.3 µM: TGI (OVCAR-8 ovarian)
20.1 µM: TGI (M14 melanoma)
